Measurements reported in patent publication US4983593A, “Pharmaceutical composition of dihydropyridine compound” (priority 1988, dated 1991).
Where a name gives a salt, the structure may show the parent alone.

Legend:
[1] = Solubility improvement of NZ-105 by pulverizing or by formulating other polymers; assay type: physicochemical; details: pulverizing crystals
Description: This entailed larger size tablets. […] This also entailed larger size tablets.

[2] = background; cited from earlier work
[3] = background; cited from earlier work; remark: listed apart in the source

| Compound | Improvement in solubility (in words) [1] | Solubility in water (in words) [2] | Absorption through gastrointestinal tracts (in words) [3] |
| --- | --- | --- | --- |
| CC1=C(C(=O)OCCN(Cc2ccccc2)c2ccccc2)C(c2cccc([N+](=O)[O-])c2)C(P2(=O)OCC(C)(C)CO2)=C(C)N1 (stereo not drawn) [NZ-105, 5-(5,5-dimethyl-1,3,2-dioxaphosphorinane-2-yl)-1,4-dihydro-2,6-dimethyl-4-(3-nitrophenyl)-3-pyridine carboxylic acid 2-(phenyl(phenylmethyl)amino) ethyl ester P-oxide hydrochlorideethanol] | did not result in an improvement in the solubility of NZ-105 of a degree to promote its bioavailability | – | – |
| COC(=O)C1=C(C)NC(C)=C(C(=O)OCCN(C)Cc2ccccc2)C1c1cccc([N+](=O)[O-])c1 (stereo not drawn) [Nicardipine] | – | very poor solubility in water | can not be absorbed through gastrointestinal tracts in a sufficient amount |
